Experimental data: publication PMC9224473 (International Journal of Molecular Sciences, 2022)
In brackets after ≈: the same amount, converted by molar mass.

Assays:
P. aeruginosa 659 = assay: MIC, broth microdilution, clinical strain; format: cell-based, Pseudomonas aeruginosa; conditions: Pseudomonas aeruginosa, 659, read-out: MIC P. aeruginosa 659, 19 h, 35 °C
S. aureus ATCC 6538 = assay: MIC, broth microdilution, standard strain; format: cell-based, Staphylococcus aureus; conditions: Staphylococcus aureus, ATCC6538, 19 h, 35 °C
S. pasteuri KR 4358 = assay: MIC, broth microdilution, clinical strain; format: cell-based, Staphylococcus pasteuri; conditions: Staphylococcus pasteuri, KR4358, 19 h, 35 °C
[1] = system: S. epidermidis ATCC 35984; assay: MIC, broth microdilution, standard strain; format: cell-based, Staphylococcus epidermidis; conditions: Staphylococcus epidermidis, ATCC35984, 19 h, 35 °C
E. coli 520 = assay: MIC, broth microdilution, clinical strain; format: cell-based, Escherichia coli; conditions: Escherichia coli, 520, 19 h, 35 °C
E. coli 600 = assay: MIC, broth microdilution, clinical strain; format: cell-based, Escherichia coli; conditions: Escherichia coli, 600, 19 h, 35 °C
S. aureus NCTC 4163 = assay: MIC, broth microdilution, standard strain; format: cell-based, Staphylococcus aureus; conditions: Staphylococcus aureus, NCTC4163, 19 h, 35 °C
S. aureus ATCC 29213 = assay: MIC, broth microdilution, standard strain; format: cell-based, Staphylococcus aureus; conditions: Staphylococcus aureus, ATCC29213, 19 h, 35 °C
E. coli ATCC 25922 = assay: MIC, broth microdilution, standard strain; format: cell-based, Escherichia coli; conditions: 35 °C; for MIC: Escherichia coli, ATCC25922, 19 h; for MIC E. coli ATCC 25922: 19 h
[2] = system: HCT116 (human colon cancer); assay: MTT cytotoxicity assay; format: cell-based; conditions: Homo sapiens, HCT-116, 72 h, mean SD
Description: (§1) The human cell lines SW480 (primary colon cancer), SW620 (lymph node metastatic colon cancer from the same patient as primary cancer cells), HCT116 (colon carcinoma), HepG2 (liver cancer), and HaCaT (immortalized keratinocytes) were obtained from the American Type Culture Collection (ATCC, Rockville, MD, USA). The SW480, SW620 and HCT116 cells were grown in MEM (ThermoSci, Waltham, MA, USA), HepG2 and HaCaT in DMEM High Glucose (Biowest SAS, Nuaillé, France) supplemented with 10% foetal bovine serum (FBS), HEPES (20 mM), and antibiotics (100 U mL^−1 of Penicillin and 100 μg mL^−1 of Streptomycin). The cells were incubated in a humidified incubator at 37 °C/5% CO2, until 80–90% confluence was reached.
(§2) The cell viability was assessed by using of MTT salt [3-(4,5-dimethylthiazol-2-yl)-2,5-diphenyltetrazolium bromide] converted by mitochondrial dehydrogenase, occurring in living cells. The cells were seeded in 96-well plates at a density of 1 × 10^4 cells per well and allowed to adhere for 24 h at 37 °C in a CO2 humidified incubator. […]. The untreated cells were used as the control.
(§3) After 72 h incubation, the medium was replaced with 200 µL per well of free-serum medium containing 0.5 mg mL^−1 MTT and incubated for 4 h at 37 °C in a CO2 humidified incubator. Subsequently, the medium was removed and dimethyl sulfoxide (DMSO) with isopropanol (1:1) was added to dissolve the formazan crystals. The optical density was measured using UVM 340 reader (ASYS Hitech GmbH, Eugendorf, Austria) at a wavelength of 570 nm. The experiments were repeated three times. The cell viability was calculated as the percent of MTT reduced in treated cells versus control cells (untreated cells). The number of viable cells cultured without tested compounds was assumed as 100%. A decreased relative MTT level indicates decreased cell viability. The IC50 values were estimated using CompuSyn version 1.0.

[3] = system: HaCaT (human immortal keratinocyte cell line); assay: MTT cytotoxicity assay; format: cell-based; conditions: Homo sapiens, HaCaT, 72 h, mean SD, read-out: IC50 HaCaT (normal cells)
Description: as §1, §2, §3

[4] = system: HepG2 (human liver cancer); assay: MTT cytotoxicity assay; format: cell-based; conditions: Homo sapiens, HepG2, 72 h, mean SD
Description: as §1, §2, §3

[5] = system: SW480 (human primary colon cancer); assay: MTT cytotoxicity assay; format: cell-based; conditions: Homo sapiens, SW480, 72 h, mean SD
Description: as §1, §2, §3

[6] = system: S. epidermidis ATCC 12228; assay: MIC, broth microdilution, standard strain; format: cell-based, Staphylococcus epidermidis; conditions: Staphylococcus epidermidis, ATCC12228, 19 h, 35 °C
P. aeruginosa ATCC 15442 = assay: MIC, broth microdilution, standard strain; format: cell-based, Pseudomonas aeruginosa; conditions: Pseudomonas aeruginosa, ATCC15442, 19 h, 35 °C
E. coli 510 = assay: MIC, broth microdilution, clinical strain; format: cell-based, Escherichia coli; conditions: Escherichia coli, 510, 19 h, 35 °C
S. aureus T 5595 = assay: MIC, broth microdilution, clinical strain; format: cell-based, Staphylococcus aureus; conditions: Staphylococcus aureus, T5595, 19 h, 35 °C
[7] = system: SW620 (human metastatic colon cancer); assay: MTT cytotoxicity assay; format: cell-based; conditions: Homo sapiens, SW-620, 72 h, mean SD
Description: as §1
The cell viability was assessed by using of MTT salt [3-(4,5-dimethylthiazol-2-yl)-2,5-diphenyltetrazolium bromide] converted by mitochondrial dehydrogenase, occurring in living cells. […] The untreated cells were used as the control.
as §3, with “Subsequently,” for “After 72 h incubation, the medium was replaced with 200 µL per well of free-serum medium containing 0.5 mg mL^−1 MTT and incubated for 4 h at 37 °C in a CO2 humidified incubator. Subsequently,”

S. epidermidis KR 4243 = assay: MIC, broth microdilution, clinical strain; format: cell-based, Staphylococcus epidermidis; conditions: Staphylococcus epidermidis, KR4243, 19 h, 35 °C
S. aureus T 5591 = assay: MIC, broth microdilution, clinical strain; format: cell-based, Staphylococcus aureus; conditions: Staphylococcus aureus, T5591, 19 h, 35 °C
S. aureus ATCC 25923 = assay: MIC, broth microdilution, standard strain; format: cell-based, Staphylococcus aureus; conditions: Staphylococcus aureus, ATCC25923, 19 h, 35 °C

Row | Compound | MIC (P. aeruginosa 659) | MIC (S. aureus ATCC 6538) | MIC (S. pasteuri KR 4358) | MIC [1] | MIC (E. coli 520) | MIC (E. coli 600) | MIC (S. aureus NCTC 4163) | MIC (S. aureus ATCC 29213) | MIC (E. coli ATCC 25922) | IC50 [2] | IC50 [3] | IC50 [4] | IC50 [5] | MIC [6] | MIC (P. aeruginosa ATCC 15442) | MIC (E. coli 510) | MIC (S. aureus T 5595) | IC50 [7] | MIC (S. epidermidis KR 4243) | MIC (S. aureus T 5591) | other results
1 | CC(C)[C@@H]1CC[C@@H](C)C[C@H]1OC(=O)CCCCN1CCN(c2cc3c(cc2F)c(=O)c(C(=O)O)cn3C2CC2)CC1 [Compound 5, 1-cyclopropyl-6-fluoro-7-{4-[5-((1R,2S,5R)-2-isopropyl-5-methylcyclohexyloxy)-5-oxopentyl)piperazin-1-yl)-4-oxo-1,4-dihydroquinoline-3-carboxylic acid] | > 256 µg/mL | 4 µg/mL (≈ 7.02 µM) | 4 µg/mL (≈ 7.02 µM) | 8 µg/mL (≈ 14 µM) | 64 µg/mL (≈ 112 µM) | 64 µg/mL (≈ 112 µM) | 4 µg/mL (≈ 7.02 µM) | 4 µg/mL (≈ 7.02 µM) | 16 µg/mL (≈ 28.1 µM) | 35.3 ± 1.7 µM | 43.3 ± 4.4 µM | 49.4 ± 4.6 µM | 55.4 ± 3.8 µM | 8 µg/mL (≈ 14 µM) | 256 µg/mL (≈ 449 µM) | > 256 µg/mL | 4 µg/mL (≈ 7.02 µM) | 26.5 ± 2.1 µM | 4 µg/mL (≈ 7.02 µM) | 2 µg/mL (≈ 3.51 µM) | MIC (S. aureus ATCC 25923): 8 µg/mL (≈ 14 µM)
2 | Cc1ccc(C(C)C)c(OCC(=O)N2CCN(c3cc4c(cc3F)c(=O)c(C(=O)O)cn4C3CC3)CC2)c1 [Compound 9, 1-cyclopropyl-6-fluoro-7-{4-[2-(2-isopropyl-5-methylphenoxy)acetyl]piperazin-1-yl}-4-oxo-1,4-dihydroquinoline-3-carboxylic acid] | 256 µg/mL (≈ 491 µM) | 2 µg/mL (≈ 3.83 µM) | 8 µg/mL (≈ 15.3 µM) | 4 µg/mL (≈ 7.67 µM) | 32 µg/mL (≈ 61.4 µM) | 32 µg/mL (≈ 61.4 µM) | 2 µg/mL (≈ 3.83 µM) | 2 µg/mL (≈ 3.83 µM) | 16 µg/mL (≈ 30.7 µM) | 44.5 ± 4 µM | 19.9 ± 2.2 µM | 25.7 ± 0.8 µM | 28.2 ± 0.6 µM | 8 µg/mL (≈ 15.3 µM) | 256 µg/mL (≈ 491 µM) | > 256 µg/mL | 4 µg/mL (≈ 7.67 µM) | 49.1 ± 4.1 µM | 8 µg/mL (≈ 15.3 µM) | 4 µg/mL (≈ 7.67 µM) | MIC (S. aureus ATCC 25923): 2 µg/mL (≈ 3.83 µM)
3 | Cc1ccc(C(C)C)c(OC(=O)CCN2CCN(c3cc4c(cc3F)c(=O)c(C(=O)O)cn4C3CC3)CC2)c1 [Compound 11, 1-cyclopropyl-6-fluoro-7-{4-[3-(2-isopropyl-5-methylphenoxy)-3-oxopropyl]piperazin-1-yl}-4-oxo-1,4-dihydroquinoline-3-carboxylic acid] | 16 µg/mL (≈ 29.9 µM) | 4 µg/mL (≈ 7.47 µM) | 8 µg/mL (≈ 14.9 µM) | 4 µg/mL (≈ 7.47 µM) | 8 µg/mL (≈ 14.9 µM) | 4 µg/mL (≈ 7.47 µM) | 4 µg/mL (≈ 7.47 µM) | 4 µg/mL (≈ 7.47 µM) | 2 to 4 µg/mL (≈ 3.73 to 7.47 µM) | 39.1 ± 5.8 µM | > 100 µM | 51.3 ± 4.1 µM | 33.7 ± 6.6 µM | 4 µg/mL (≈ 7.47 µM) | 16 µg/mL (≈ 29.9 µM) | 256 µg/mL (≈ 478 µM) | 8 µg/mL (≈ 14.9 µM) | 43.5 ± 7.5 µM | 4 µg/mL (≈ 7.47 µM) | 4 µg/mL (≈ 7.47 µM) | MIC E. coli ATCC 25922 (E. coli ATCC 25922): 4 µg/mL (≈ 7.47 µM); MIC (S. aureus ATCC 25923): 4 µg/mL (≈ 7.47 µM)
4 | Cc1ccc(C(C)C)c(OC(=O)CCCCN2CCN(c3cc4c(cc3F)c(=O)c(C(=O)O)cn4C3CC3)CC2)c1 [Compound 13, 1-cyclopropyl-6-fluoro-7-{4-[5-(2-isopropyl-5-methylphenoxy)-5-oxopentyl]piperazin-1-yl}-4-oxo-1,4-dihydroquinoline-3-carboxylic acid] | 128 µg/mL (≈ 227 µM) | 2 µg/mL (≈ 3.55 µM) | 2 µg/mL (≈ 3.55 µM) | 2 µg/mL (≈ 3.55 µM) | 4 µg/mL (≈ 7.1 µM) | 8 µg/mL (≈ 14.2 µM) | 2 µg/mL (≈ 3.55 µM) | 2 µg/mL (≈ 3.55 µM) | 2 to 4 µg/mL (≈ 3.55 to 7.1 µM) | 50.2 ± 3.4 µM | > 100 µM | 33.8 ± 2.1 µM | 48.1 ± 2.8 µM | 2 µg/mL (≈ 3.55 µM) | 16 µg/mL (≈ 28.4 µM) | 128 µg/mL (≈ 227 µM) | 2 µg/mL (≈ 3.55 µM) | 50.2 ± 0.8 µM | 2 µg/mL (≈ 3.55 µM) | 2 µg/mL (≈ 3.55 µM) | MIC E. coli ATCC 25922 (E. coli ATCC 25922): 4 µg/mL (≈ 7.1 µM); MIC (S. aureus ATCC 25923): 4 µg/mL (≈ 7.1 µM)
5 | Cc1ccc(C(C)C)c(OC(=O)CCCCCN2CCN(c3cc4c(cc3F)c(=O)c(C(=O)O)cn4C3CC3)CC2)c1 [Compound 14, 1-cyclopropyl-6-fluoro-7-{4-[6-(2-isopropyl-5-methylphenoxy)-6-oxohexyl]piperazin-1-yl}-4-oxo-1,4-dihydroquinoline-3-carboxylic acid] | 64 µg/mL (≈ 111 µM) | 2 µg/mL (≈ 3.46 µM) | 2 µg/mL (≈ 3.46 µM) | 1 µg/mL (≈ 1.73 µM) | 16 µg/mL (≈ 27.7 µM) | 8 µg/mL (≈ 13.8 µM) | 1 µg/mL (≈ 1.73 µM) | 2 µg/mL (≈ 3.46 µM) | 2 to 4 µg/mL (≈ 3.46 to 6.92 µM) | 38.1 ± 3.4 µM | 31.8 ± 1.9 µM | 44.4 ± 3.5 µM | 35.2 ± 1.2 µM | 1 µg/mL (≈ 1.73 µM) | 16 µg/mL (≈ 27.7 µM) | 128 µg/mL (≈ 222 µM) | 2 µg/mL (≈ 3.46 µM) | 53.1 ± 0.3 µM | 2 µg/mL (≈ 3.46 µM) | 4 µg/mL (≈ 6.92 µM) | MIC E. coli ATCC 25922 (E. coli ATCC 25922): 2 µg/mL (≈ 3.46 µM); MIC (S. aureus ATCC 25923): 1 µg/mL (≈ 1.73 µM)
